For one data set, the system named is Male C57BL/6 mice. Nature of the data set: Acute-toxicity assay in mice. It counts as in vivo. The settings on record: 200 or 400 mg/kg by gavage. Here is the method: Male C57BL/6 mice weighing 18–20 g were randomly divided into three groups (n = 5 per group). Mice were gavage-administered 200 μL of the drug (at 200 or 400 mg/kg in physiological saline). Mice in the control group received 200 μL of physiological saline. After drug administration, body-weight changes were recorded for 7 days.

Data set [1] can be described thus: Pharmacokinetic parameters in rats. It counts as in vivo. The following applies: SD rats. The method, then:
Male SD rats weighing 180–220 g (Southern China Medical University) were utilized for the studies. The protocol was approved by the Animal Care and Use Committee, GIBH. Animals were given standard animal chow and water ad libitum in a climate-controlled room (23 ± 1 °C, 30–70% relative humidity, a minimum of 10 exchanges of room air per hour, and a 12 h light–dark cycle) for 1 week prior to experiments. The compound was dissolved in a solution containing 2% DMSO, 4% ethanol, 4% castor oil, and 90% ddH2O. The pharmacokinetic properties of the SD rats (male) were determined following iv and oral administration. Animals were randomly distributed into two experimental groups (n = 3). […] After single administration, whole blood samples (100–200 μL) were obtained from the orbital venous plexus at the following time points after dosing: 5, 10, and 30 min and 1, 2, 3, 4, 6, 8, 11, and 24 h (po) or 2, 10, and 30 min and 1, 2, 3, 4, 6, 8, 11, and 24 h (iv). Whole blood samples were collected in heparinized tubes. The plasma fraction was immediately separated by centrifugation (8000 rpm, 6 min, 4 °C) and stored at −20 °C until LC-MS analysis. The rats were humanely euthanasia by carbon dioxide 24 h after the experiment without pain. The pharmacokinetics parameters were calculated by analyzing the compound concentrations in plasma samples using the pharmacokinetic software DAS.2.0.

Setting [2] is: male, rat, plasma, iv (4 mg/kg).
Setting [3] is: male, rat, plasma, oral (20 mg/kg).

On to `CC(C)c1ccc(C(=O)Nc2cc(CN3CCN(C)CC3)cc(C(F)(F)F)c2)cc1C#Cc1cnc2cnccn12` [Compound 5n, 3-(Imidazo[1,2-a]pyrazin-3-ylethynyl)-4-isopropyl-N-(3-((4-methylpiperazin-1-yl)methyl)-5-(trifluoromethyl)phenyl)benzamide], for which the tolerability result in the data set with Male C57BL/6 mice is given as “well-tolerated”. In addition, the “animal deaths and body-weight changes” value in the data set on Male C57BL/6 mice (7 days) is reported as “no animal deaths or obvious body-weight changes”. Moreover, the BA in data set [1] (oral (20 mg/kg) vs iv (4 mg/kg)) was 8.06%. In data set [1] (setting [2]), the AUC(0-inf) (usually the area under the concentration-time curve extrapolated to infinity) is 798 ± 121 ng·h/mL; the Cmax – broadly, the highest concentration seen after dosing – is 1180 ± 150 ng/mL; the half-life – broadly, the time in which the quantity being followed falls by half – is 2.12 ± 0.25 h. The clearance in data set [1] (male, rat, plasma, iv (4 mg/kg), read-out: CLz (converted)) is 85 mL/min/kg. In data set [1] (setting [3]), the area under the curve AUC(0-inf) was 322 ± 106 ng·h/mL; the Cmax stood at 48.7 ± 18.2 ng/mL; the Tmax (as a rule, the time from dosing to the highest level) stood at 1.5 ± 1.3 h; the half-life was 2.08 ± 0.66 h.
